Measurements published in patent publication US7018612B1, “Method of preparing a radioactive rhenium complex solution” (Mallinckrodt Inc., priority 1990, dated 2006).

Experiment: Influence of reaction temperature on stability of Re186-HEDP during storage at ambient temperature
Format: physicochemical

Which “Re186-HEDP content at t=0” value (labelling by heating 15 minutes in a boiling water bath (just below 100° C.), t=0) does the source give for “rhenium-186 labelled 1-hydroxyethylidene diphosphonate [Re186-HEDP]” here?
The value was 99.12%.

What about the “Re186-HEDP content at t=24 h” value (labelling by heating 15 minutes in a boiling water bath, storage at ambient temperature, t=24 h) of the same substance?
The value was 93.72%.
